Measured values published in the supplement of paper PMC10307832.

Experiments:
Assay in all cases: relative viability (nuclei count vs DMSO), 5 days (fraction); higher = more cells survive
Tanzisertib + OSI-027 = compound: O[C@H]1CC[C@H](Nc2ncc3nc(Nc4c(F)cc(F)cc4F)n([C@H]4CCOC4)c3n2)CC1 [Tanzisertib] + COc1cccc2cc(-c3nc([C@H]4CC[C@H](C(=O)O)CC4)n4ncnc(N)c34)[nH]c12 [OSI-027] (partner 0.5 µM)
How it was run: (§1)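 For relative viability, nuclei counts in treated wells were divided by those in vehicle wells. Lung cancer cell lines had been pin-tool dosed in 1536-well plates the day after seeding and cultured for 5 days, then fixed and stained in one step (final 0.05% Triton X-100, 1% formaldehyde, 1 ug/ml Hoechst) and imaged at 4×. Doses were one drug alone or a fixed anchor-drug dose plus five library-drug doses (not always all listed) in √10 steps, and values are duplicate-plate medians.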

Tanzisertib + Pemetrexed = compound: O[C@H]1CC[C@H](Nc2ncc3nc(Nc4c(F)cc(F)cc4F)n([C@H]4CCOC4)c3n2)CC1 [Tanzisertib] + Nc1nc2[nH]cc(CCc3ccc(C(=O)N[C@@H](CCC(=O)O)C(=O)O)cc3)c2c(=O)[nH]1 [Pemetrexed] (partner 0.2 µM)
How it was run: as §1

[1] = compound: C1CNCCC1C2=CC(=NN2)C3=CC=NC=C3 + C[C@@H](Oc1cc(-c2cnn(C3CCNCC3)c2)cnc1N)c1c(Cl)ccc(F)c1Cl [Crizotinib] (partner 1 µM)
How it was run: as §1

[2] = compound: O[C@H]1CC[C@H](Nc2ncc3nc(Nc4c(F)cc(F)cc4F)n([C@H]4CCOC4)c3n2)CC1 [Tanzisertib] + CC(=O)c1c(C)c2cnc(Nc3ccc(N4CCNCC4)cn3)nc2n(C2CCCC2)c1=O [Palbociclib] (partner 0.5 µM)
How it was run: as §1

UMC-11
relative viability (Tanzisertib + OSI-027; first compound 0.08 µM): 0.532 | relative viability (Tanzisertib + OSI-027; first compound 0.253 µM): 0.391 | relative viability (Tanzisertib + OSI-027; first compound 0.8 µM): 0.537 | relative viability (Tanzisertib + OSI-027; first compound 2.53 µM): 0.439 | relative viability (Tanzisertib + OSI-027; first compound 8 µM): 0.477 | relative viability (Tanzisertib + Pemetrexed; first compound 0.08 µM): 0.801 | relative viability (Tanzisertib + Pemetrexed; first compound 0.253 µM): 0.793 | relative viability (Tanzisertib + Pemetrexed; first compound 0.8 µM): 0.784 | relative viability (Tanzisertib + Pemetrexed; first compound 2.53 µM): 0.816 | relative viability (Tanzisertib + Pemetrexed; first compound 8 µM): 0.833 | relative viability ([1]; first compound 0.08 µM): 0.69 | relative viability ([1]; first compound 0.8 µM): 0.577 | relative viability ([1]; first compound 2.53 µM): 0.713 | relative viability ([1]; first compound 8 µM): 0.63 | relative viability ([2]; first compound 0.08 µM): 0.346 | relative viability ([2]; first compound 0.253 µM): 0.285 | relative viability ([2]; first compound 0.8 µM): 0.319 | relative viability ([2]; first compound 2.53 µM): 0.325 | relative viability ([2]; first compound 8 µM): 0.355
